Paper PMC6886798, “Expression of myeloid Src-family kinases is associated with poor prognosis in AML and influences Flt3-ITD kinase inhibitor acquired resistance” (PLoS ONE, 2019)

Key:
Assay in all cases: KINOMEscan
Format in all cases: binding
Conditions in all cases: 1.0 µM
MAP4K3 = target: T1, MAP4K3 (Homo sapiens, UniProt Q8IVH8)
T1 construct: purchased Eurofins/DiscoverX KINOMEscan scanMAX
Description: (§1) Kinase retention to the immobilized ligand is then measured using quantitative real-time PCR for each kinase-specific DNA barcode.

WEE1 = target: T2, WEE1 (Homo sapiens, UniProt P30291)
T2 construct: DNA tag (qPCR barcode); purchased Eurofins/DiscoverX KINOMEscan scanMAX
Description: as §1

AURKA = target: T3, AURKA (Homo sapiens, UniProt O14965)
T3 construct: purchased Eurofins/DiscoverX KINOMEscan scanMAX
Description: as §1

CDK2 = target: T4, CDK2 (Homo sapiens, UniProt P24941)
T4 construct: purchased Eurofins/DiscoverX KINOMEscan scanMAX
Description: as §1

PIK3CA(E545K) = target: T5, PIK3CA(E545K) (Homo sapiens, UniProt P42336, E545K)
T5 construct: purchased Eurofins/DiscoverX KINOMEscan scanMAX
T5 sequence (P42336 whole entry E545K): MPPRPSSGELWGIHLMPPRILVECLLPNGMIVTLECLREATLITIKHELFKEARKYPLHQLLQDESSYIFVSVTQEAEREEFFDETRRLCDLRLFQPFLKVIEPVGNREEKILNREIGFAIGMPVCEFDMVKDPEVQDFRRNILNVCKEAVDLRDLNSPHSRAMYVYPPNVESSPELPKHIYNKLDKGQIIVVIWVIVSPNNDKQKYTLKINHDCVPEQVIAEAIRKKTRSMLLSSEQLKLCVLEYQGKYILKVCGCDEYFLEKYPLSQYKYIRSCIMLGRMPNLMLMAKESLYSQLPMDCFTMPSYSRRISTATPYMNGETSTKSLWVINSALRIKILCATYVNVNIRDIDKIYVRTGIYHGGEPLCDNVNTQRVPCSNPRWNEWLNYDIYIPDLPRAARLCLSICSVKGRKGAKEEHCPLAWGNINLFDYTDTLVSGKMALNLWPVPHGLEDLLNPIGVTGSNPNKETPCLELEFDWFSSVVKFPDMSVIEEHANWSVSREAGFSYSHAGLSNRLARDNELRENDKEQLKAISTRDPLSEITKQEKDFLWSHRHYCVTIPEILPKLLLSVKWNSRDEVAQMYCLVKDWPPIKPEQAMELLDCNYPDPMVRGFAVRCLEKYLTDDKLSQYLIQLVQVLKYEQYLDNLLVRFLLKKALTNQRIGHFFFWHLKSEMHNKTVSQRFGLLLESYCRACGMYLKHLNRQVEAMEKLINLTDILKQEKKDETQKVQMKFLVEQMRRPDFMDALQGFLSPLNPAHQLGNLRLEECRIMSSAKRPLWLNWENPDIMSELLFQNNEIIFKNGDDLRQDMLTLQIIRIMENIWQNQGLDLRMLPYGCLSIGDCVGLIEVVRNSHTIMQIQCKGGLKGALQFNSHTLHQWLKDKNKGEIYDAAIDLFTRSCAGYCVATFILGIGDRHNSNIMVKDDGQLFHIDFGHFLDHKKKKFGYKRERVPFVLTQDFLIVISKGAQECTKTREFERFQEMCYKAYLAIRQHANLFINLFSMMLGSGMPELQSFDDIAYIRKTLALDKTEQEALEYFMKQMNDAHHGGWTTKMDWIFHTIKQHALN
Description: as §1

TNIK = target: T6, TNIK (Homo sapiens, UniProt Q9UKE5)
T6 construct: purchased Eurofins/DiscoverX KINOMEscan scanMAX
Description: as §1

PRKG1 = target: T7, PRKG1 (Homo sapiens, UniProt Q13976)
T7 construct: purchased Eurofins/DiscoverX KINOMEscan scanMAX
Description: as §1

PYK2 = target: T8, PYK2 (Homo sapiens, UniProt Q14289)
T8 construct: purchased Eurofins/DiscoverX KINOMEscan scanMAX
Description: as §1

p38-beta = target: T9, p38-beta (Homo sapiens, UniProt Q15759)
T9 construct: purchased Eurofins/DiscoverX KINOMEscan scanMAX
Description: as §1

PRKX = target: T10, PRKX (Homo sapiens, UniProt P51817)
T10 construct: purchased Eurofins/DiscoverX KINOMEscan scanMAX
T10 sequence (P51817 whole entry): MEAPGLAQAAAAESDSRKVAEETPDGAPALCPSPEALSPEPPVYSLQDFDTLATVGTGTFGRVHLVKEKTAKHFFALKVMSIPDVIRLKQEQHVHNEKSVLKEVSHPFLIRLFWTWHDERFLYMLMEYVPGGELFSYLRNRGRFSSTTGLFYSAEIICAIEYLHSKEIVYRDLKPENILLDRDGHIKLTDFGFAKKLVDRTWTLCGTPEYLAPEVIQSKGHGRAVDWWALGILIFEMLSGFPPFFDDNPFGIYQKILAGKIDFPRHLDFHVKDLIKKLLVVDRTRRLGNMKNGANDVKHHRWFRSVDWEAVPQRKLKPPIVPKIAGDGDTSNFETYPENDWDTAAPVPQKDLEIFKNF
Description: as §1

YANK2 = target: T11, YANK2 (Homo sapiens, UniProt Q9NY57)
T11 construct: purchased Eurofins/DiscoverX (KINOMEscan scanMAX service)
Description: as §1

PIKFYVE = target: T12, PIKFYVE (Homo sapiens, UniProt Q9Y2I7)
T12 construct: purchased Eurofins/DiscoverX KINOMEscan scanMAX
Description: as §1

MAP3K3 = target: T13, MAP3K3 (Homo sapiens, UniProt Q99759)
T13 construct: purchased Eurofins/DiscoverX KINOMEscan scanMAX
Description: as §1

FGFR2 = target: T14, FGFR2 (Homo sapiens, UniProt P21802)
T14 construct: purchased Eurofins/DiscoverX KINOMEscan scanMAX
T14 sequence (P21802 22-821): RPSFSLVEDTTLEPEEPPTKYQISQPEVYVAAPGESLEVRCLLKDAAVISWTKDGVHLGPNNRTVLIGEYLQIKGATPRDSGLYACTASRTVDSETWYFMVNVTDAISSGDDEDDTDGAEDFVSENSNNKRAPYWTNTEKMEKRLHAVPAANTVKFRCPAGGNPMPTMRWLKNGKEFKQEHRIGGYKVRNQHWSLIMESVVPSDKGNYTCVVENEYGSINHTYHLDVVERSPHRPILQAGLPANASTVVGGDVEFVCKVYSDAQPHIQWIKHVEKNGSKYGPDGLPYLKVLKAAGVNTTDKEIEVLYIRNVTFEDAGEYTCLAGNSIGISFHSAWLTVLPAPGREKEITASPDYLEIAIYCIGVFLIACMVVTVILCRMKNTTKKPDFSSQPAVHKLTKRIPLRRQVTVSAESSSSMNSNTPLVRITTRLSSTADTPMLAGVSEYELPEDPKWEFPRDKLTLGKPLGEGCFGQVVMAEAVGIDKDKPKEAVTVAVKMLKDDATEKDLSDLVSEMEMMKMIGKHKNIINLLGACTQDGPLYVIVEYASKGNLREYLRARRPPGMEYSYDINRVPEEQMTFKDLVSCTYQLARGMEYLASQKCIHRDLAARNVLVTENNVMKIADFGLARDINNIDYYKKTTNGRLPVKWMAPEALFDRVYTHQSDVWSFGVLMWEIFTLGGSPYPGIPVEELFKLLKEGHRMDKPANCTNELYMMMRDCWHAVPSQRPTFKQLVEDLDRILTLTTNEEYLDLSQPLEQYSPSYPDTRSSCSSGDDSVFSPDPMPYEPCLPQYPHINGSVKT
Description: as §1

PIK3CA(M1043I) = target: T15, PIK3CA(M1043I) (Homo sapiens, UniProt P42336, M1043I)
T15 construct: purchased Eurofins/DiscoverX KINOMEscan scanMAX
T15 sequence (P42336 whole entry M1043I): as the sequence (P42336 whole entry E545K) above, with K545E, M1043I counted along it
Description: as §1

RIPK1 = target: T16, RIPK1 (Homo sapiens, UniProt Q13546)
T16 construct: purchased Eurofins/DiscoverX KINOMEscan scanMAX
Description: as §1

TYRO3 = target: T17, TYRO3 (Homo sapiens, UniProt Q06418)
T17 construct: DNA tag (qPCR barcode); purchased Eurofins/DiscoverX KINOMEscan scanMAX
T17 sequence (Q06418 41-890): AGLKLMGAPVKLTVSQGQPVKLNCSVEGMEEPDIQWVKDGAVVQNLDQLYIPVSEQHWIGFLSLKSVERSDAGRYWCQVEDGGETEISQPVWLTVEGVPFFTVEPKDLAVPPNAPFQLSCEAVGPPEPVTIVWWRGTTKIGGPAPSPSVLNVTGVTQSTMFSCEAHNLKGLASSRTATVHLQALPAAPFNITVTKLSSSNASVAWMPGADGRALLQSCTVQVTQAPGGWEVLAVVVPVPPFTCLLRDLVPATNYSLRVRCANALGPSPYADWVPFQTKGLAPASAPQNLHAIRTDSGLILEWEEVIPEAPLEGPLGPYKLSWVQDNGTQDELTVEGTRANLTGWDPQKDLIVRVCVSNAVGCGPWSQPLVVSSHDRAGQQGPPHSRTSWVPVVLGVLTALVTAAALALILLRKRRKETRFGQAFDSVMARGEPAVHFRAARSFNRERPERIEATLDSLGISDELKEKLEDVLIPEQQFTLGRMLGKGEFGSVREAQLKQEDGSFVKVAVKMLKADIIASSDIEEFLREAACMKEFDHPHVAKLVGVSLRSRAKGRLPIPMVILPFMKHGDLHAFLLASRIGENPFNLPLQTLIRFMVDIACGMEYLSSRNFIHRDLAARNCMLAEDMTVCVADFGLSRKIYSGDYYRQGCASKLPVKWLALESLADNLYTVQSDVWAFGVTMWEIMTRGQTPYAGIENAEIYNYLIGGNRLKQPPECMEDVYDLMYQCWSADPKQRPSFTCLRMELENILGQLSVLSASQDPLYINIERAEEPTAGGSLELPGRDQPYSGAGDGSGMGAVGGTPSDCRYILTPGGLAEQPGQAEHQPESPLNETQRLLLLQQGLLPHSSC
Description: as §1

MST3 = target: T18, MST3 (Homo sapiens, UniProt Q9Y6E0)
T18 construct: purchased Eurofins/DiscoverX KINOMEscan scanMAX
Description: as §1

AKT2 = target: T19, AKT2 (Homo sapiens, UniProt P31751)
T19 construct: purchased Eurofins/DiscoverX KINOMEscan scanMAX
Description: as §1

[1] = target: T20, ABL1(H396P)-phosphorylated (Homo sapiens, UniProt P00519, H396P)
T20 construct: purchased Eurofins/DiscoverX KINOMEscan scanMAX
Description: as §1

PFTAIRE2 = target: T21, PFTAIRE2 (Homo sapiens, UniProt Q96Q40)
T21 construct: purchased Eurofins/DiscoverX KINOMEscan scanMAX
Description: as §1

ABL1-nonphosphorylated = target: T22, ABL1-nonphosphorylated (Homo sapiens, UniProt P00519)
T22 construct: purchased Eurofins/DiscoverX KINOMEscan scanMAX
Description: as §1

ABL1-phosphorylated = target: T23, ABL1-phosphorylated (Homo sapiens, UniProt P00519)
T23 construct: purchased Eurofins/DiscoverX KINOMEscan scanMAX
Description: as §1

PRKD1 = target: T24, PRKD1 (Homo sapiens, UniProt Q15139)
T24 construct: purchased Eurofins/DiscoverX KINOMEscan scanMAX
Description: as §1

INSRR = target: T25, INSRR (Homo sapiens, UniProt P14616)
T25 construct: purchased Eurofins/DiscoverX KINOMEscan scanMAX
Description: as §1

GCN2(Kin.Dom.2,S808G) = target: T26, GCN2(Kin.Dom.2,S808G) (Homo sapiens, UniProt Q9P2K8, S808G)
T26 construct: GCN2(Kin.Dom.2,S808G); purchased Eurofins/DiscoverX KINOMEscan scanMAX
Description: as §1

YANK1 = target: T27, YANK1 (Homo sapiens, UniProt Q8WU08)
T27 construct: DNA tag (qPCR barcode); purchased Eurofins/DiscoverX KINOMEscan scanMAX
Description: as §1

MAP4K5 = target: T28, MAP4K5 (Homo sapiens, UniProt Q9Y4K4)
T28 construct: purchased Eurofins/DiscoverX KINOMEscan scanMAX
Description: as §1

PFTK1 = target: T29, PFTK1 (Homo sapiens, UniProt O94921)
T29 construct: purchased Eurofins/DiscoverX KINOMEscan scanMAX
T29 sequence (O94921 whole entry): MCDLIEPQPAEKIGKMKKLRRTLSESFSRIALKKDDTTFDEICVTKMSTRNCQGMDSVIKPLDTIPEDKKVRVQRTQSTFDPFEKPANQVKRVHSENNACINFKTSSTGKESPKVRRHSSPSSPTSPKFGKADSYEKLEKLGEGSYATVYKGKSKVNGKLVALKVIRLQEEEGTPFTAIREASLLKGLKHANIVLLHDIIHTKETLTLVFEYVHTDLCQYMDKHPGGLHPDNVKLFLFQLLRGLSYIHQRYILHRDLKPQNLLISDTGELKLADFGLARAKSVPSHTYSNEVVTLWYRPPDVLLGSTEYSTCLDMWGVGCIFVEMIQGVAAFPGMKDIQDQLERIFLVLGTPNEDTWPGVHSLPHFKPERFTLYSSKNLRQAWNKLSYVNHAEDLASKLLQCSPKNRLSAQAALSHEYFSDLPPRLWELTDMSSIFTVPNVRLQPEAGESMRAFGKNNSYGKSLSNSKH
Description: as §1

TGFBR2 = target: T30, TGFBR2 (Homo sapiens, UniProt P37173)
T30 construct: purchased Eurofins/DiscoverX KINOMEscan scanMAX
Description: as §1

PIK3CA(C420R) = target: T31, PIK3CA(C420R) (Homo sapiens, UniProt P42336, C420R)
T31 construct: purchased Eurofins/DiscoverX KINOMEscan scanMAX
T31 sequence (P42336 whole entry C420R): as the sequence (P42336 whole entry E545K) above, with C420R, K545E counted along it
Description: as §1

PIM2 = target: T32, PIM2 (Homo sapiens, UniProt Q9P1W9)
T32 construct: purchased Eurofins/DiscoverX KINOMEscan scanMAX
Description: as §1

AMPK-alpha1 = target: T33, AMPK-alpha1 (Homo sapiens, UniProt Q13131)
T33 construct: purchased Eurofins/DiscoverX KINOMEscan scanMAX
Description: as §1

[2] = target: T34, RSK2(Kin.Dom.2-C-terminal) (Homo sapiens, UniProt P51812)
T34 construct: RSK2(Kin.Dom.2-C-terminal); purchased Eurofins/DiscoverX KINOMEscan scanMAX
T34 sequence (P51812 422-679 limits assumed): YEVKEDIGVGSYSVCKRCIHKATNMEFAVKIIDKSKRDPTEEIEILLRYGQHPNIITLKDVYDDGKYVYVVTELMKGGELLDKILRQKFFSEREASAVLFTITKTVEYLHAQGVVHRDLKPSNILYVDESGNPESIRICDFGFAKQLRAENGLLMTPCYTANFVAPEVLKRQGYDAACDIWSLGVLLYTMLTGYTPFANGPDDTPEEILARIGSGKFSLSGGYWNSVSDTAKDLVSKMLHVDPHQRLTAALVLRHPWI
Description: as §1

LATS1 = target: T35, LATS1 (Homo sapiens, UniProt O95835)
T35 construct: purchased Eurofins/DiscoverX KINOMEscan scanMAX
Description: as §1

HIPK2 = target: T36, HIPK2 (Homo sapiens, UniProt Q9H2X6)
T36 construct: purchased Eurofins/DiscoverX KINOMEscan scanMAX
Description: as §1

MEK1 = target: T37, MEK1 (Homo sapiens, UniProt Q02750)
T37 construct: purchased Eurofins/DiscoverX KINOMEscan scanMAX
T37 sequence (Q02750 whole entry): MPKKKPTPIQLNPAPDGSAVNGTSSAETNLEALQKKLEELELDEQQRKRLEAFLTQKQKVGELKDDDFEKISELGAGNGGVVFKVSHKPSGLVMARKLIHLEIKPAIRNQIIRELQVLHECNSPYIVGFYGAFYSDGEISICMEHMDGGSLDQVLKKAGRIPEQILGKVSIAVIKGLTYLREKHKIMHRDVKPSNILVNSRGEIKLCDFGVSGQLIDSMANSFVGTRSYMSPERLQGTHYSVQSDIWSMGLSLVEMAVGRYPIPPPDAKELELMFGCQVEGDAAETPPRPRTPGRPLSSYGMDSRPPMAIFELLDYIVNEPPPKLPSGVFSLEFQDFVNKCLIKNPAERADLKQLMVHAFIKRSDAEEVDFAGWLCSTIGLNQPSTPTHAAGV
Description: as §1

CSNK1D = target: T38, CSNK1D (Homo sapiens, UniProt P48730)
T38 construct: purchased Eurofins/DiscoverX KINOMEscan scanMAX
Description: as §1

RET = target: T39, RET (Homo sapiens, UniProt P07949)
T39 construct: purchased Eurofins/DiscoverX KINOMEscan scanMAX
Description: as §1

p38-alpha = target: T40, p38-alpha (Homo sapiens, UniProt Q16539)
T40 construct: purchased Eurofins/DiscoverX KINOMEscan scanMAX
T40 sequence (Q16539 whole entry): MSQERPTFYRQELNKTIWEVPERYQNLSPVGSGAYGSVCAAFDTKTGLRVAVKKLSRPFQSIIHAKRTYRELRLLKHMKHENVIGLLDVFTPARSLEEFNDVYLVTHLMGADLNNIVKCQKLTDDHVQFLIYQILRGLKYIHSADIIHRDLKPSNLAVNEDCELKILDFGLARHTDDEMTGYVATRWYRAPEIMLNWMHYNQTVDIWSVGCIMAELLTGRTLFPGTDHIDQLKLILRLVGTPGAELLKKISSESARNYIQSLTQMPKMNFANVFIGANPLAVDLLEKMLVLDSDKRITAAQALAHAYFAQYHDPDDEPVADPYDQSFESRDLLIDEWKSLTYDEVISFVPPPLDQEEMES
Description: as §1

PIM1 = target: T41, PIM1 (Homo sapiens, UniProt P11309)
T41 construct: purchased Eurofins/DiscoverX KINOMEscan scanMAX
T41 sequence (P11309 whole entry): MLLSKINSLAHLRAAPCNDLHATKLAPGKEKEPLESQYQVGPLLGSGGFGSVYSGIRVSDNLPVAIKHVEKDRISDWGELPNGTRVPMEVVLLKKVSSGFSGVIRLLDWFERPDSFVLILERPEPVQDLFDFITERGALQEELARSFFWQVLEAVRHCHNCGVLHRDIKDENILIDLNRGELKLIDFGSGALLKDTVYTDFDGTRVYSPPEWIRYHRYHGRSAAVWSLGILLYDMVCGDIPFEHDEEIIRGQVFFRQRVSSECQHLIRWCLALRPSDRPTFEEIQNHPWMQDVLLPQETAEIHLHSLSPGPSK
Description: as §1

SMILES: CN1CCN(C2CCC(n3cc(-c4ccc(Oc5ccccc5)cc4)c4c(N)ncnc43)CC2)CC1 (centres unmarked) [A-419259]
- % Control (MAP4K3): 32%
- % Control (WEE1): 100%
- % Control (AURKA): 36%
- % Control (CDK2): 70%
- % Control (PIK3CA(E545K)): 95%
- % Control (TNIK): 100%
- % Control (PRKG1): 100%
- % Control (PYK2): 88%
- % Control (p38-beta): 100%
- % Control (PRKX): 100%
- % Control (YANK2): 30%
- % Control (PIKFYVE): 78%
- % Control (MAP3K3): 6.3%
- % Control (FGFR2): 39%
- % Control (PIK3CA(M1043I)): 100%
- % Control (RIPK1): 100%
- % Control (TYRO3): 66%
- % Control (MST3): 80%
- % Control (AKT2): 92%
- % Control [1]: 0.65%
- % Control (PFTAIRE2): 89%
- % Control (ABL1-nonphosphorylated): 0.1%
- % Control (ABL1-phosphorylated): 0.25%
- % Control (PRKD1): 63%
- % Control (INSRR): 86%
- % Control (GCN2(Kin.Dom.2,S808G)): 79%
- % Control (YANK1): 30%
- % Control (MAP4K5): 9.2%
- % Control (PFTK1): 63%
- % Control (TGFBR2): 100%
- % Control (PIK3CA(C420R)): 100%
- % Control (PIM2): 100%
- % Control (AMPK-alpha1): 43%
- % Control [2]: 100%
- % Control (LATS1): 30%
- % Control (HIPK2): 100%
- % Control (MEK1): 0.1%
- % Control (CSNK1D): 8.3%
- % Control (RET): 0%
- % Control (p38-alpha): 100%
- % Control (PIM1): 100%
